From US5919782A, “Heterocyclic compounds having antidiabetic, hypolipidaemic, antihypertensive properties, process for their preparation and pharmaceutical compositions containing them” (Dr. Reddy's Research Foundation, priority 1996, dated 1999)
Structures can show the parent of a compound that is named as a salt.

What was measured:
C57 BL/KsJ-db/db mice = test: blood sugar and triglycerides lowering activity in db/db mice; format: in vivo, mouse (male C57 BL/KsJ-db/db); details: for Reduction in Blood Glucose Level / Triglyceride Lowering: oral gavage daily for 6 days, db/db mice
From the text: Mutation in colonies of laboratory animals and different sensitivities to dietary regimens have made the development of animal models with non-insulin dependent diabetes associated with obesity and insulin resistance possible. Genetic models such as db/db and ob/ob (See Diabetes, (1982) 31(1): 1-6) in mice and fa/fa and zucker rats have been developed by the various laboratories for understanding the pathophysiology of disease and testing the efficacy of new antidiabetic compounds (Diabetes, (1983) 32: 830-838; Annu. Rep. Sankyo Res. Lab. (1994). 46: 1-57). The homozygous animals, C57 BL/KsJ-db/db mice developed by Jackson Laboratory, US, are obese, hyperglycemic, hyperinsulinemic and insulin resistant (J. Clin. Invest., (1990) 85: 962-967), whereas heterozygous are lean and normoglycemic. In db/db model, mice progressively develop insulinopenia with age, a feature commonly observed in late stages of human type II diabetes when blood sugar levels are insufficiently controlled. The state of pancreas and its course vary according to the models. Since this model resembles that of type II diabetes mellitus, the compounds of the present invention were tested for blood sugar and triglycerides lowering activities.
Male C57 BL/KsJ-db/db mice of 8 to 14 weeks age, having body weight range of 35 to 60 grams, procured from the Jackson Laboraotory, USA, were used in the experiment. The mice were provided with standard feed (National Institute of Nutrition, Hyderabad, India) and acidified water, ad libitum. The animals having more than 300 mg/dl blood sugar were used for testing. The number of animals in each group was 4.
The random blood sugar and triglyceride levels were measured by collecting blood (100 μl) through orbital sinus, using heparinised capillary in tubes containing EDTA which was centrifuged to obtain plasma. The plasma glucose and triglyceride levels were measured spectrometrically, by glucose oxidase and glycerol-3-PO4 oxidase/peroxidase enzyme (Dr. Reddy's Lab. Diagnostic Division Kits, Hyderabad, India) methods respectively. On 6th day the blood samples were collected one hour after administration of test compounds/vehicle for assessing the biological activity.
Test compounds were suspended on 0.25% carboxymethyl cellulose or water (for water soluble compounds) and administered to test group at a dose of 10 to 30 mg/kg through oral gavage daily for 6 days. The control group received vehicle (dose 10 ml/kg).
The blood sugar and triglycerides lowering activities of the test compound was calculated according to the formula: [formula] ZC=Zero day control group value DC=Zero day treated group value
TC=Control group value on test day
DT=Treated group value on the test day

rats = test: Subacute toxicity in rats; format: in vivo; details: 100 mg/kg orally
Procedure: Groups of 20 rats, consisting of 10 males and 10 females, weighing between 120 to 140 gm, received orally 100 mg/kg of compound of Example 6 for 28 days. The behavioral changes and body weights were monitored daily. The rats were sacrificed on the 29th day and blood was collected for hematological and biochemical estimations. All vital organs were examined both macroscopically and microscopically.

In the case of O=C1NC(=O)C(=Cc2ccc(OC[C@@H]3CCCN3c3ccccn3)cc2)S1 [Example 6, 5-[4-[[1-(Pyridin-2-yl)-(2S)-pyrrolidin-2-yl]methoxy]phenylmethylene]thiazolidine-2,4-dione, maleic acid salt], the “Reduction in Blood Glucose Level” value (C57 BL/KsJ-db/db mice; 10 mg/kg) is reported as 49%, the “Triglyceride Lowering” value (C57 BL/KsJ-db/db mice; 10 mg/kg) is reported as 71% and the “gross macroscopic and microscopic changes of heart, lungs, bone marrow, kidneys and spleen” value (rats; 28 days) is reported as “No gross macroscopic and microscopic changes of heart, lungs, bone marrow, kidneys and spleen were observed”. The mortality (rats; 28 days) was “did not produce any mortality”, the “Organ Weight, Heart” value (rats; 28 days, Control 0.59 ± 0.09) was 0.61 ± 0.08 g and the RBC (rats; 28 days, Control 7.33 ± 0.75) was 7.08 ± 0.93 × 10^6 /mm^3. The WBC (rats; 28 days, Control 8.08 ± 2.01) was 9.19 ± 2.11 × 10^3 /mm^3, the Hemoglobin (rats; 28 days, Control 15.18 ± 0.69) was 14.88 ± 0.46 gm/dl and the PVC (rats; 28 days, Control 52.06 ± 2.58) was 52.21 ± 2.67%. The “hematological and biochemical parameters, deviations from control” value (rats; end of 28 days treatment) was “no significant deviations from the control were observed in hematological and biochemical parameters”.
With O=C1NC(=O)C(Cc2ccc(OCC3CN(c4ccccn4)CCO3)cc2)S1 (stereo not drawn) [Example 27, 5-[4-[[4-(Pyridin-2-yl)morpholin-2yl]methoxy]phenylmethyl]thiazolidine-2,4-dione, sodium salt] the “Reduction in Blood Glucose Level” value (C57 BL/KsJ-db/db mice; 10 mg/kg) was 56% and the “Triglyceride Lowering” value (C57 BL/KsJ-db/db mice; 10 mg/kg) was 29%.
With O=C1NC(=O)C(=Cc2ccc(OC[C@@H]3CCCN3c3ccccn3)cc2)S1 [Example 7, 5-[4-[[1-(Pyridin-2-yl)-(2S)-pyrrolidin-2-yl]methoxy]phenylmethylene]thiazolidine-2,4-dione, hydrochloride salt] the “Reduction in Blood Glucose Level” value (C57 BL/KsJ-db/db mice; 30 mg/kg) was 67% and the “Triglyceride Lowering” value (C57 BL/KsJ-db/db mice; 30 mg/kg) was 43%.
With Cc1cc(N2CCC[C@H]2COc2ccc(CC3SC(=O)NC3=O)cc2)nc2ccccc12 (stereo partly drawn) [Example 20, 5-[4-[[1-(Lepidin-2-yl)-(2S)-pyrrolidin-2-yl]methoxy]phenylmethyl]thiazolidine-2,4-dione, sodium salt] the “Reduction in Blood Glucose Level” value (C57 BL/KsJ-db/db mice; 30 mg/kg) was 30% and the “Triglyceride Lowering” value (C57 BL/KsJ-db/db mice; 30 mg/kg) was 62%.
With O=C1NC(=O)C(Cc2ccc(OC[C@@H]3CCCN3c3ccc4ccccc4n3)cc2)S1 (stereo partly drawn) [Example 12, 5-[4-[[1-(Quinolin-2-yl)-(2S)-pyrrolidin-2-yl]methoxy]phenylmethyl]thiazolidine-2,4-dione] the “Reduction in Blood Glucose Level” value (C57 BL/KsJ-db/db mice; 30 mg/kg) was 27% and the “Triglyceride Lowering” value (C57 BL/KsJ-db/db mice; 30 mg/kg) was 49%.
O=C1NC(=O)C(=Cc2ccc(O[C@H]3CCN(c4ccccn4)C3)cc2)S1 [Example 23, 5-[4-[1-(Pyridin-2-yl)-(3S)-pyrrolidin-3-yloxy]phenylmethylene]thiazolidine-2,4-dione, hydrochloride salt] was tested, and the “Reduction in Blood Glucose Level” value (C57 BL/KsJ-db/db mice; 10 mg/kg) was 46% and the “Triglyceride Lowering” value (C57 BL/KsJ-db/db mice; 10 mg/kg) was 10%.
For Cc1c(C)c2c(c(C)c1O)CCC(C)(COc1ccc(CC3SC(=O)NC3=O)cc1)O2 (stereo not drawn) [Troglitazone, reference compound], the “reduction in random blood sugar level” value (C57 BL/KsJ-db/db mice; 100 mg/kg daily dose, standard drug, on 6th day) was 28%.
